Measurements taken from US9241888B2, “Pharmaceutical or cosmetic composition for treating alopecia” (GIULIANI S.P.A., priority 2012, dated 2016).
Each block holds one compound with its values, some of them ahead of it.

Experiments:
NCTC2544 cells = assay: Antioxidant test: production of reactive oxygen species (ROS), DCFH-DA spectrofluorometry; format: cell-based, human; settings: for Concentration of ROS products compared to control cells treated with H2O2: 1.5 h, α-tocopherol 250 μg/ml, spermidine and N-methylspermidine 1 nM-1 mM
Protocol: The production of reactive oxygen species (ROS) was monitored by spectrofluorometry using 2′,7′-dichlorofluorescein diacetate (DCFH-DA) as described by Tobi et al. (Tobi S E, Paul N, T McMillan J. J Photochem. Photobiol, B 2000: 57: 102-112).
The aforementioned NCTC2544 cells (˜80% confluence) were detached with trypsin/EDTA and seeded at a density of 5×10^4 cells per well, in 96-well plates. Subsequently, the cells were treated with the N-methylspermidine according to the invention and spermidine. The following concentrations of N-methylspermidine and spermidine were tested: 1 nM, 500 nM, 1 μM, 500 μM, 1 mM (final concentration in the culture medium).
α-tocopherol (250 μg/ml) was used as a comparison. The plates were incubated at 37° C., in 5% CO2, for 1.5 h. The cells grown on basal medium with 10% FBS were used as a control.

[1] = tested on: hair follicles (HF) in anagen VI phase from human scalp skin; assay: Hair shaft elongation test, ex vivo organ culture of hair follicles; format: cell-based; settings: 0.5 μM, day 6; for Elongation of the hair shaft with respect to the vehicle: every 48 hours
Protocol: The activity of N-methylspermidine was tested in an ex vivo model which made it possible to measure the effect on the elongation of the hair shaft. The organ culture of hair follicles (HF) in anagen VI phase involved microdissection of HF from the skin of the human scalp (temporo-frontal area) after informed consent from the subjects who were undergoing surgery (face lifts), in accordance with the Helsinki Declaration and with the approval of the Ethics Committee of the University of Lübeck. […] For immunohistochemical studies, the isolated follicles were cultured for 6 consecutive days. Spermidine, N-methylspermidine and the vehicle (distilled water) were administered once for each change of culture medium (every 48 hours), at a concentration of 0.5 μM. The measurements of the shaft elongation after the treatment with vehicle, spermidine and N-methylspermidine were taken on days 0, 1, 4 and 6, using a Zeiss inverted binocular microscope with one eyepiece containing a reticle (Carl Zeiss, Oberkochen, Germany).

[2] = tested on: hair follicles (HF) in anagen VI phase from human scalp skin; assay: Anagen and catagen phases in the ex vivo hair follicle model; format: cell-based
Protocol: The organ culture of hair follicles (HF) in anagen VI phase involved microdissection of HF from the skin of the human scalp (temporo-frontal area) after informed consent from the subjects who were undergoing surgery (face lifts), in accordance with the Helsinki Declaration and with the approval of the Ethics Committee of the University of Lübeck. […] For immunohistochemical studies, the isolated follicles were cultured for 6 consecutive days. Spermidine, N-methylspermidine and the vehicle (distilled water) were administered once for each change of culture medium (every 48 hours), at a concentration of 0.5 μM. The following results for the anagen and catagen phases, summarised in the graphs of FIGS. 5 and 6, were also obtained from the same ex vivo model of hair follicles (HF) described for the previous test of elongation of the hair shaft.

[3] = Reactivity: air oxidation, chemiluminometric determination of N-nitroso derivatives; format: physicochemical; settings: 2 mM aqueous solution diluted with water/ethanol (85/15), exposed to ambient air 72 h
Description: The properties of 1,4-butanediamine,N-(3-aminopropyl)-N^1-methyl (II) and 1,4-butanediamine,N-(3-aminopropyl)-N^1-cyclohexyl (III) after exposure to air were studied by comparison with the corresponding non-substituted derivative, in which the N^1 amine group lacking the R substituent becomes a secondary amine group, namely 1,4-butanediamine,N-(3-aminopropyl). Since one of the common products of oxidation of the secondary amino group takes the form of the N-nitroso derivatives which are formed by reaction with the nitrogen oxides present in the air, the nitrosated derivatives which were formed upon leaving a solution of the test compounds in contact with the ambient air were determined as a parameter of reactivity.
The instrumentation used consisted of a stage on which both the analysis of the nitrite ions and the analysis of the N-nitrosamines were carried out, the latter under strong denitrosating conditions. The nitrogen oxide which developed in accordance with the amount of nitrite ions and that which developed in accordance with the quantity of nitroso groups were evaluated by way of a chemiluminometric detector.
The content of NO^2− ions was analysed using a reducing mixture of acetic acid/potassium iodide (5 ml/1 ml of 5% H2O soln.) at a temperature of 0-4° C. The nitroso groups were analysed using a denitrosating mixture of acetic acid/hydrobromic acid (5 ml/1 ml) at a temperature of 70° C.
The method for determining air oxidation of the compound was as follows.
a) a 2 mM solution of the test substance in purified water was doubly seeded, at an amount equal to 500 μl in appropriate wells of six-well plates of inert plastics material (polystyrene);
b) the solution in each well was diluted with 500 μl of a mixture of purified water and ethanol (85/15) free from contamination. This promotes the dispersion of the liquid film on the surface of the well;
c) the plate prepared in this manner is exposed to ambient air for 72 h
d) at the end of the exposure time, the residue in the well is eluted with 1 ml of purified water and then used for the chemiluminometric analysis.

[4] = tested on: NCTC2544 human keratinocytes; assay: MTT Assay (cell viability / cytotoxicity); format: cell-based; settings: 1 nM, 500 nM, 24 or 48 hours exposure
Description: MTT Assay is a test used for analysing cell viability (Mosmann, 1983). It is a colorimetric test based on the use of the tetrazolium salt MTT, which measures cell viability which can then be quantified by a microplate spectrophotometric reader. MTT (3-(4,5-dimethylthiazol-2-yl)-2,5-diphenyltetrazolium bromide, a tetrazole), a yellow compound, is reduced to formazan, a purple substance, in cellular mitochondria. The absorbance of this coloured solution can be quantified by measuring it at a given wavelength (570 nm) using a spectrophotometer. The maximum absorbance will depend on the solvent used. This reduction only takes place when the mitochondrial reductase enzymes are active, and the conversion to formazan can therefore be related directly to the number of viable cells. When the amount of formazan produced by cells treated with a substance is compared with the amount produced by untreated control cells, it is possible to deduce the efficacy of the tested substance in causing cell death by producing a dose-response curve. The solutions of MTT solubilised in PBS or cell culture medium, without phenol red, are of a yellowish colour. […] The resulting purple solution is analysed by spectrophotometry. An increase in the number of cells will result in an increase in the formazan obtained and in an increase in absorbance. […]

- Nitroso derivatives after 72 h exposure [3]: absent
Compound: CNCCCCNCCCN [N-methylspermidine, N-(3-aminopropyl)-N′-methyl-1,4-butanediamine]
- Concentration of ROS products compared to control cells treated with H2O2 (NCTC2544 cells): decrease in the concentration of ROS products
- Antioxidant activity compared with that of spermidine (NCTC2544 cells; comparison with spermidine): no significant difference
- Elongation of the hair shaft with respect to the vehicle [1]: improve the elongation of the hair shaft significantly
- Difference in hair shaft elongation between spermidine and N-methylspermidine [1]: not statistically significant
- Effect of prolonging the anagen phase, compared with spermidine ([2]; 0.5 μM each, 6 days): greater effect of prolonging the anagen phase
- Number of hairs entering the catagen phase, compared with spermidine ([2]; 0.5 μM each, 6 days): significantly lower
- Follicles entering catagen spontaneously ([2]; 0.5 μM, after 6 days of treatment, vehicle more than 60%): ~30%
- Percentage of hair follicles in the anagen phase ([2]; 0.5 μM, after 6 days of treatment, versus vehicle): significant increase

- Nitroso derivatives after 72 h exposure [3]: absent
Compound: NCCCCN(CCCN)C1CCCCC1 [N-(3-aminopropyl)-N^1-cyclohexyl-1,4-butanediamine]

Compound: Cc1c(C)c2c(c(C)c1O)CC[C@@](C)(CCC[C@H](C)CCC[C@H](C)CCCC(C)C)O2 [α-tocopherol, reference compound]
- Concentration of ROS products compared to control cells treated with H2O2 (NCTC2544 cells): decrease in the concentration of ROS products

Compound: NCCCCNCCCN [spermidine, N′-(3-aminopropyl)-1,4-diaminobutane, reference compound]
- Cytotoxic effects / cell viability in percent against the control [4]: no cytotoxic effects
- Concentration of ROS products compared to control cells treated with H2O2 (NCTC2544 cells): decrease in the concentration of ROS products
- Elongation of the hair shaft with respect to the vehicle [1]: improve the elongation of the hair shaft significantly
- Nitroso derivatives after 72 h exposure [3]: 2.3 ppm
